How the values were obtained:
[1] = Oxidative stability of HMPE and HMPB in air and aqueous solution; format: physicochemical; details: air and aqueous solutions
[2] = In vitro stability of Re complexes to cysteine challenge, 31P NMR; format: physicochemical; details: for ligand exchange or complex decomposition: 1 M cysteine, 25° C, ~0.01 M complex
Method: Appropriate sample sizes of complexes 8, 9, and 10 were dissolved in 10 mL of deionized water to afford solution concentrations of ~0.01 M. To these solutions was added 15 mL of a 1.0 M cysteine solution also in water. The solutions were allowed to stir at room temperature overnight. The reaction progress for potential ligand displacement was monitored by ^31 P NMR spectroscopy at various timepoints over a twenty-four hour study period.
In order to determine the in vitro stability of the rhenium S2 P2 complexes 8, 9, and 10, the solutions of each were allowed to incubate at 25° C. in an aqueous solution of cysteine.

Compound	oxidative stability [1]	ligand exchange or complex decomposition [2]	stability profile (kinetic inertness) ([2]; 1.0 M cysteine, 24 hours)
OCP(CO)c1ccccc1P(CO)CO [HMPB, (HOH2 C)2 PC6 H4 P(CH2 OH)2]	oxidatively stable in air and also in aqueous solutions		
OCP(CO)CCP(CO)CO [HMPE, (HOH2 C)2 PCH2 CH2 P(CH2 OH)2]	oxidatively stable in air and also in aqueous solutions		
[ReO2 (HOH2 C)2 P(CH2)2 S(CH2)3 S(CH2)2 P(CH2 OH)2 ]2 Cl2 [Compound 8]		no observable ligand exchange or complex decomposition	
[ReO2 (HOH2 C)2 P(CH2)2 S(CH2)4 S(CH2)2 P(CH2 OH2 ]2 (ReO4^-)2 [Compound 9]		no observable ligand exchange or complex decomposition	
[ReO2 (HOH2 C)2 P(CH2)3 S(CH2)3 S(CH2)3 P(CH2 OH)2 ]Cl [Compound 10]		no observable ligand exchange or complex decomposition	unusual kinetic inertness

Reference: patent US6054115A, “Hydroxymethyl phosphine compounds for use as diagnostic and therapeutic pharmaceuticals and method of making same” (priority 1998, dated 2000)
